# Test results from publication PMC6688371, “Effect of the inhaled PDE4 inhibitor CHF6001 on biomarkers of inflammation in COPD” (Respiratory Research, 2019).
# Key:
# [1] = Stability of CHF6001 in human sputum samples (bioanalytical validation); type: in vitro ADME
# Procedure: Effect of CHF6001 on inflammatory biomarkers – Additional file 1
# Approximately 80 to 100 cells were to be counted per square , with the number of live leukocytes, dead leukocytes and squamous cells counted.
# To determine differential cell counts, the sputum cell suspension was adjusted with Dulbecco's Phosphate -Buffered Saline to give 0.5x10^6 cells/mL. A total of 75 µL was used to prepare a cytoslide, which was then centrifuged at 450 rpm for 6 min and allowed to air dry for a minimum of 30 min before being fixed with methanol for 10 min. Four slides were prepared for each sample.
# Only one of the sputum samples induced at 2 h post-dose on Days 20, 26 or 32 was used to evaluate CHF6001 concentration, with the evaluation performed only if a minimum of 300 mg of residual sputum remained. Approximately 30 mg of sputum plug was transferred to a polypropylene cryotube, and was shipped in an upright position at –80C to a central laboratory for analysis. The concentration of CHF6001 was evaluated using a LC-MS/MS method following solid phase extraction. Validation procedures were the same as those listed above for biomarkers. […]
# over the calibration range of 30 to 20,000 ng/mL. The precision and accuracy of the method […]
# 30 ng/mL and within 15% at all other concentrations. No significant matrix effects were […]
# temperature (nominally +22C), after storage for 93 days in a freezer set at –80C and after four freeze-thaw cycles at nominally –80C / +22C. The method was considered to be suitable for measuring concentrations of CHF6001 in human sputum samples from […]
# Analysis of biomarkers and CHF6001 concentration in blood
# The levels of inflammatory biomarkers were evaluated from blood collected at 2 h post-dose
# [2] = Stability of CHF6001 in human plasma (bioanalytical validation); type: in vitro ADME
# Procedure: Effect of CHF6001 on inflammatory biomarkers – Additional file 1 to –90C. The plasma concentration of CHF6001 was evaluated using a LC-MS/MS method following solid phase extraction. Validation procedures again followed those outlined for the analysis of biomarkers above. The bioanalytical method wa s found to be linear over the calibration range of 10 to 20,000 pg/mL. The precision and accuracy of the method was found to be within the target limits of within 20% at the lower limit of quantification 10 pg/mL and within 15% at all other concentrations.
# The recovery of CHF6001 from human plasma was consistent across the analytical range , with no significant matrix effects. […]
# for up to 24 h at the sample processing temperature (nominally +20C), a fter storage for 184 days in a freezer (nominally –80C) and after four freeze-thaw cycles at nominally – 80C / +20C. Therefore the method was considered to be suitable for measuring concentrations of CHF6001 in human plasma samples from regulatory studies.
# The study was approved by two centralised ethics committees on behalf of the sites:
# • UK: Health Research Authority, North West, Greater Manchester South Research Ethics Committee, Manchester (approval reference 16/NW/0553).
# • Germany: Ethics Committee of Hesse Medical Association, Frankfurt am Main (approval reference FF 98/2016).
# Patients had to meet all the following inclusion criteria to be eligible for enrolment into the […]
# 1. Written informed consent obtained prior to any study-related procedures;
# 2. Male or female aged ≥40 years;
# 3. A female was eligible to enter the study if they were of non-childbearing potential, i.e. physiologically incapable of becoming pregnant (e.g. postmenopausal women defined as being amenorrhoeic for ≥12 consecutive months without an alternative medical cause. If indicated, as per Investigator’s request, post -menopausal status
# patients with COPD = test: Safety and tolerability (adverse events, vital signs, ECG, laboratory data)
# Description: The Safety population is all randomised patients who received at least one dose of study medication.
smiles,measurement,setting,value
CS(=O)(=O)Nc1ccc(C(=O)O[C@@H](Cc2c(Cl)c[n+]([O-])cc2Cl)c2ccc(OC(F)F)c(OCC3CC3)c2)cc1OCC1CC1 [CHF6001],Storage time found stable in sputum,[1]; freezer set at –80C,93 days
same,Freeze-thaw cycles found stable in sputum,[1]; nominally –80C / +22C,four
same,Time found stable in sputum,[1]; sample processing temperature (nominally +22C),up to 24 h
same,Storage time found stable in human plasma,[2]; freezer (nominally –80C),184 days
same,Freeze-thaw cycles found stable in human plasma,[2]; nominally –80C / +20C,four
same,Time found stable in human plasma,[2]; sample processing temperature (nominally +20C),up to 24 h
same,Adverse events,patients with COPD; 800 μg BID (N = 58),30 (51.7) patients (%)
same,Adverse events leading to study drug withdrawal,patients with COPD; 800 μg BID (N = 58),3 (5.2) patients (%)
same,Adverse events with a fatal outcome,patients with COPD; 800 μg BID (N = 58),0 patients (%)
same,Back pain,patients with COPD; 800 μg BID (N = 58),4 (6.9) patients (%)
same,Cough,patients with COPD; 800 μg BID (N = 58),1 (1.7) patients (%)
same,Diarrhoea,patients with COPD; 800 μg BID (N = 58),3 (5.2) patients (%)
same,Drug-related adverse events,patients with COPD; 800 μg BID (N = 58),1 (1.7) patients (%)
same,Drug-related adverse events: Dry mouth,patients with COPD; 800 μg BID (N = 58),0 patients (%)
same,Drug-related adverse events: Sleep disorders,patients with COPD; 800 μg BID (N = 58),1 (1.7) patients (%)
same,Drug-related serious adverse events,patients with COPD; 800 μg BID (N = 58),0 patients (%)
same,Fatigue,patients with COPD; 800 μg BID (N = 58),1 (1.7) patients (%)
same,Headache,patients with COPD; 800 μg BID (N = 58),1 (1.7) patients (%)
same,Nasopharyngitis,patients with COPD; 800 μg BID (N = 58),5 (8.6) patients (%)
same,Oropharyngeal pain,patients with COPD; 800 μg BID (N = 58),3 (5.2) patients (%)
same,Serious adverse events,patients with COPD; 800 μg BID (N = 58),2 (3.4) patients (%)
same,Severe adverse events,patients with COPD; 800 μg BID (N = 58),0 patients (%)
same,Tension headache,patients with COPD; 800 μg BID (N = 58),1 (1.7) patients (%)
same,Toothache,patients with COPD; 800 μg BID (N = 58),3 (5.2) patients (%)
same,Patients reporting gastrointestinal adverse events,"patients with COPD; 800 μg BID, seven patients",12.1%
same,Adverse events,patients with COPD; 1600 μg BID (N = 59),33 (55.9) patients (%)
same,Adverse events leading to study drug withdrawal,patients with COPD; 1600 μg BID (N = 59),2 (3.4) patients (%)
same,Adverse events with a fatal outcome,patients with COPD; 1600 μg BID (N = 59),0 patients (%)
same,Back pain,patients with COPD; 1600 μg BID (N = 59),1 (1.7) patients (%)
same,Cough,patients with COPD; 1600 μg BID (N = 59),3 (5.1) patients (%)
same,Diarrhoea,patients with COPD; 1600 μg BID (N = 59),1 (1.7) patients (%)
same,Drug-related adverse events,patients with COPD; 1600 μg BID (N = 59),1 (1.7) patients (%)
same,Drug-related adverse events: Dry mouth,patients with COPD; 1600 μg BID (N = 59),1 (1.7) patients (%)
same,Drug-related adverse events: Sleep disorders,patients with COPD; 1600 μg BID (N = 59),0 patients (%)
same,Drug-related serious adverse events,patients with COPD; 1600 μg BID (N = 59),0 patients (%)
same,Fatigue,patients with COPD; 1600 μg BID (N = 59),3 (5.1) patients (%)
same,Headache,patients with COPD; 1600 μg BID (N = 59),7 (11.9) patients (%)
same,Nasopharyngitis,patients with COPD; 1600 μg BID (N = 59),6 (10.2) patients (%)
same,Oropharyngeal pain,patients with COPD; 1600 μg BID (N = 59),2 (3.4) patients (%)
same,Serious adverse events,patients with COPD; 1600 μg BID (N = 59),2 (3.4) patients (%)
same,Severe adverse events,patients with COPD; 1600 μg BID (N = 59),1 (1.7) patients (%)
same,Tension headache,patients with COPD; 1600 μg BID (N = 59),3 (5.1) patients (%)
same,Toothache,patients with COPD; 1600 μg BID (N = 59),1 (1.7) patients (%)
same,Patients reporting gastrointestinal adverse events,"patients with COPD; 1600 μg BID, six patients",10.2%
same,"Haematology or biochemistry data, between treatments",patients with COPD; 800 or 1600 μg BID and placebo,no major differences
same,"Systolic or diastolic blood pressure, heart rate or Fridericia's corrected QT interval vs placebo",patients with COPD; either dose (800 or 1600 μg BID),no differences
